Where a name gives a salt, the structure may show the parent alone. Read-outs that look alike come from different tables or passages of the source.
Molecular target: T1, human mAChR M4 (Homo sapiens, UniProt P08173)
T1 sequence (P08173 1-479): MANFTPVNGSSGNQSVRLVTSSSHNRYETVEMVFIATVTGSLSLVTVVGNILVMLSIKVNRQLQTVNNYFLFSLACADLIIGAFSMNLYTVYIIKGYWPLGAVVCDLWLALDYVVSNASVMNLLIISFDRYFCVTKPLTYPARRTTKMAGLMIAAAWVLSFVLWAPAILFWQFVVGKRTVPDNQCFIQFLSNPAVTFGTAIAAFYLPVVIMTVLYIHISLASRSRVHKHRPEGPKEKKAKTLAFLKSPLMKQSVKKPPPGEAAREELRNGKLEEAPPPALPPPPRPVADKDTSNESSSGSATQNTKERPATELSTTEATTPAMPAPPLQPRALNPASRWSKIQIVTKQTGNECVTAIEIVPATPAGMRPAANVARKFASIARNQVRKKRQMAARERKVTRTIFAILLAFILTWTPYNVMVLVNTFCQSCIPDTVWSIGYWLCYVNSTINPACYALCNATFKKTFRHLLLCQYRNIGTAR
Experiment: mAChR M4 cell-based functional assay (calcium flux), human M4

[1] = Human M4 EC50 (nM), Table 10, calcium flux, PAM activity with EC20 acetylcholine
[2] = Table 10, % ACh maximum at 30 μM
[3] = Human M4 EC50 (nM), Table 11, calcium flux, PAM activity with EC20 acetylcholine
[4] = Table 11, % ACh maximum at 30 μM
[5] = Human M4 EC50, CHO-K1 hM4-Gqi5 cells, calcium flux, increase in EC20 acetylcholine response

SMILES | EC50 [1] | Emax [2] | further results
Cc1nnc2sc3c(NCc4ccc(-c5ccc[nH]5)cc4)ncnc3c2c1C [Compound 191, 3,4-dimethyl-N-[[4-(1H-pyrrol-2-yl)phenyl]methyl]pyrimido[4′,5′:4,5] thieno[2,3-c]pyridazin-8-amine] | 837 nM | 56.9% | –
Cc1nnc2sc3c(NCc4ccc(C(=O)NC5CC5(C)C)c(Cl)c4)ncnc3c2c1C (centres unmarked) [Compound 319, 2-chloro-N-(2,2-dimethylcyclopropyl)-4-[[(3,4-dimethylpyrimido [4′,5′:4,5]thieno[2,3-c]pyridazin-8-yl)amino]methyl]benzamide] | – | – | EC50 [3]: 544 nM; Emax [4]: 75.6%
Cc1nnc2sc3c(NCc4ccc(F)c(C(=O)NC5CC5)c4)ncnc3c2c1C [Compound 176, N-cyclopropyl-5-[[(3,4-dimethylpyrimido [4′,5′:4,5]thieno[2,3-c]pyridazin-8-yl)amino]methyl]-2-fluoro-benzamide] | 511 nM | 105% | –
Cc1cc(C)c2c(n1)oc1c(NC3CN(c4cc(Cl)ncc4Cl)C3)ncnc12 [Compound 60, N-[1-(2,5-dichloro-4-pyridyl)azetidin-3-yl]-7,9-dimethyl-pyrido[3′,2′:4,5]furo[3,2-d]pyrimidin-4-amine dihydrochloride] | – | – | Emax: 49.3%; EC50 [5]: 1490 nM
Cc1nnc2sc3c(N4CC5(CNC5)C4)ncnc3c2c1C [Compound 105, 8-(2,6-diazaspiro[3.3]heptan-2-yl)-3,4-dimethyl-pyrimido [4′,5′:4,5]thieno[2,3-c] pyridazine] | 627 nM | – | Emax: 55.6%
COC(=O)C12CC(CNc3ncnc4c3sc3nnc(C)c(C)c34)(C1)C2 [Compound 140, methyl 1-[[(3,4-dimethylpyrimido [4′,5′:4,5]thieno[2,3-c]pyridazin-8-yl)amino]methyl]bicyclo[1.1.1] pentane-3-carboxylate] | 1240 nM | 80.3% | –
Cc1nnc2sc3c(NCc4ccc(F)c(C(=O)NC5CC(F)(F)C5)c4)ncnc3c2c1C [Compound 184, N-(3,3-difluorocyclobutyl)-5-[[(3,4-dimethylpyrimido [4′,5′:4,5]thieno[2,3-c]pyridazin-8-yl)amino]methyl]-2-fluoro-benzamide] | 340 nM | 107% | –
Cc1nnc2sc3c(NCc4ccc(C(C)(C)CO)cc4F)ncnc3c2c1C [Compound 368, 2-[4-[[(3,4-dimethylpyrimido[4′,5′:4,5]thieno[2,3-c]pyridazin-8-yl)amino]methyl]-3-fluoro-phenyl]-2-methyl-propan-1-ol] | – | – | EC50 [3]: 766 nM; Emax [4]: 98%
Cc1nnc2sc3c(NCc4ccc(C(=O)N(C)C5CC5)cc4)ncnc3c2c1C [Compound 132, N-cyclopropyl-4-[[(3,4-dimethylpyrimido [4′,5′:4,5]thieno[2,3-c]pyridazin-8-yl)amino]methyl]-N-methyl-benzamide] | 309 nM | 90.4% | –
Cc1nnc2sc3c(N4CC[C@H](Oc5ccc(C#N)cc5)C4)ncnc3c2c1C [Compound 363, 4-[(3S)-1-(3,4-dimethylpyrimido[4′,5′:4,5]thieno[2,3-c]pyridazin-8-yl)pyrrolidin-3-yl] oxybenzonitrile dihydrochloride] | – | – | EC50 [3]: 298 nM; Emax [4]: 64.8%
Cc1nnc2sc3c(NCc4ccc(C(C)(O)C5CC5)cc4)ncnc3c2c1C (centres unmarked) [Compound 143, 1-cyclopropyl-1-[4-[[(3,4-dimethylpyrimido [4′,5′:4,5]thieno[2,3-c]pyridazin-8-yl)amino]methyl]phenyl]ethanol] | 779 nM | 61.3% | –
Cc1nnc2sc3c(NC45CC(F)(C4)C5)ncnc3c2c1C [Compound 139, N-(3-fluoro-1-bicyclo [1.1.1]pentanyl)-3,4-dimethyl-pyrimido [4′,5′:4,5]thieno[2,3-c]pyridazin-8-amine] | 422 nM | 67.6% | –
Cc1c(Cl)cnc2sc3c(N4CC(c5ccncc5)C4)ncnc3c12 [Compound 224, 8-chloro-9-methyl-4-[3-(4-pyridyl)azetidin-1-yl]pyrido [3′,2′:4,5]thieno[3,2-d] pyrimidine] | 102 nM | 57.6% | –
CCC(O)(CC)c1ccc(CNc2ncnc3c2sc2nnc(C)c(C)c23)cc1 [Compound 144, 3-[4-[[(3,4-dimethylpyrimido [4′,5′:4,5]thieno[2,3-c]pyridazin-8-yl)amino]methyl]phenyl]pentan-3-ol] | 986 nM | 78.3% | –
Cc1nnc2sc3c(NCc4ccc(C(=O)N5CC[C@@H](F)C5)cc4)ncnc3c2c1C [Compound 129, [4-[[(3,4-dimethylpyrimido [4′,5′:4,5]thieno[2,3-c]pyridazin-8-yl)amino]methyl]phenyl]-[(3R)-3-fluoropyrrolidin-1-yl]methanone] | 446 nM | 90.6% | –
Cc1nnc2sc3c(N4CC(NC(=O)c5ccncc5)C4)ncnc3c2c1C [Compound 97, N-[1-(3,4-dimethylpyrimido [4′,5′:4,5]thieno[2,3-c]pyridazin-8-yl)azetidin-3-yl]pyridine-4-carboxamide hydrochloride] | 1130 nM | 51.7% | –
Cc1cnc2sc3c(N4CCC(F)(F)C4)ncnc3c2c1 [Compound 16, 4-(3,3-difluoropyrrolidin-1-yl)-8-methylpyrido [3′,2′:4,5]thieno[3,2-d] pyrimidine] | – | – | Emax (Human M4, % ACh maximum at 30 μM): 360%; EC50 [5]: 377 nM
CC(=O)OCc1nnc2sc3c(NCc4ccc(C(C)(C)O)cc4)ncnc3c2c1C [Compound 376, [8-[[4-(1-hydroxy-1-methyl-ethyl)phenyl]methylamino]-4-methyl-pyrimido[4′,5′:4,5]thieno[2,3-c]pyridazin-3-yl]methyl acetate] | – | – | Emax [4]: 59.4%
Cc1nnc2sc3c(NCc4ccc(N5CCNCC5)cc4)ncnc3c2c1C [Compound 118, 3,4-dimethyl-N-[(4-piperazin-1-ylphenyl)methyl]pyrimido [4′,5′:4,5]thieno[2,3-c] pyridazin-8-amine] | 69 nM | 101% | –
COc1ccc(CNc2ncnc3c2sc2nnc(C)c(C)c23)cc1OC [Compound 94, N-[(3,4-dimethoxyphenyl)methyl]-3,4-dimethyl-pyrimido[4′,5′:4,5]thieno [2,3-c]pyridazin-8-amine] | 639 nM | 79.7% | –
COc1cc(F)c(CNc2ncnc3c2sc2nnc(C)c(C)c23)c(F)c1 [Compound 121, N-[(2,6-difluoro-4-methoxy-phenyl)methyl]-3,4-dimethyl-pyrimido [4′,5′:4,5]thieno[2,3-c] pyridazin-8-amine] | 579 nM | 100% | –
CCC(C)(O)c1ccc(CNc2ncnc3c2sc2nnc(C)c(C)c23)c(F)c1 (centres unmarked) [Compound 115, 2-[4-[[(3,4-dimethylpyrimido [4′,5′:4,5]thieno[2,3-c]pyridazin-8-yl)amino]methyl]-3-fluoro-phenyl]butan-2-ol] | 916 nM | 72.3% | –
Cc1c(Cl)nnc2sc3c(NCc4ccc(OC(F)F)nc4)ncnc3c12 [Compound 211, 3-chloro-N-[[6-(difluoromethoxy)-3-pyridyl]methyl]-4-methyl-pyrimido [4′,5′:4,5]thieno[2,3-c] pyridazin-8-amine] | 787 nM | 68.5% | –
Cc1nnc2sc3c(N4CC(Nc5ccnc(F)c5F)C4)ncnc3c2c1C [Compound 161, N-[1-(3,4-dimethylpyrimido[4′,5′:4,5]thieno[2,3-c]pyridazin-8-yl)azetidin-3-yl]-2,3-difluoro-pyridin-4-amine; 2,2,2-trifluoroacetic acid] | 84.3 nM | 80.1% | –
Cc1nnc2sc3c(N4CC[C@H](Oc5ccnc(Cl)c5)C4)ncnc3c2c1C [Compound 329, 8-[(3S)-3-[(2-chloro-4-pyridyl)oxy]pyrrolidin-1-yl]-3,4-dimethyl-pyrimido [4′,5′:4,5]thieno[2,3-c] pyridazine] | – | – | EC50 [3]: 107 nM; Emax [4]: 76.6%
Cc1nnc2sc3c(N4CC[C@H](Oc5cccnc5)C4)ncnc3c2c1C [Compound 332, 3,4-dimethyl-8-[(3S)-3-(3-pyridyloxy)pyrrolidin-1-yl] pyrimido[4′,5′:4,5]thieno [2,3-c]pyridazine] | – | – | EC50 [3]: 129 nM; Emax [4]: 80.5%

Continued, in another order:

EC50 [1] | Emax [2] | SMILES | further results
1250 nM | 40.6% | CCNc1ncnc2c1oc1nc(C)c(Cl)c(C)c12 [Compound 287, 8-chloro-N-ethyl-7,9-dimethyl-pyrido[3′,2′:4,5]furo[3,2-d]pyrimidin-4-amine hydrochloride] | –
1250 nM | 45.5% | Cc1nc2oc3c(NCc4ccc(S(C)(=O)=O)cc4)ncnc3c2c(C)c1Cl [Compound 248, 8-chloro-7,9-dimethyl-N-[(4-methylsulfonylphenyl)methyl]pyrido[3′,2′:4,5] furo[3,2-d]pyrimidin-4-amine hydrochloride] | –
– | 45.3% | Cc1nc2sc3c(NCc4ccc(C5(O)CCC5)cc4)ncnc3c2c(C)c1Cl [Compound 276, 1-[4-[[(8-chloro-7,9-dimethyl-pyrido [3′,2′:4,5]thieno[3,2-d]pyrimidin-4-yl)amino]methyl]phenyl]cyclobutanol] | EC50 (Human M4 EC50 (nM), Table 10, unit μM (bounds)): > 10000 nM
3370 nM | 37.7% | Cc1cc(C)c2c(n1)oc1c(N3CC4(COC4)C3)ncnc12 [Compound 296, 7,9-dimethyl-4-(2-oxa-6-azaspiro[3.3]heptan-6-yl)pyrido[3′,2′:4,5]furo[3,2-d]pyrimidine] | –
